# Reference: patent US4698330A, “Somnogenic compositions and method of use” (President & Fellows of Harvard College, priority 1983, dated 1987)
# Several values for one entry are separate records, joined by “and”; a condition that tells them apart may be missing. Equal entries are not always repeated.
# Tests used:
# rabbits [1] = test: Intraventricular infusion in rabbits, EEG slow-wave sleep (SWS); settings: for % SWS, 6 hr post infusion, Expt / % SWS Expt.: hr 2-6 after infusion; for % SWS, 6 hr post infusion, Expt: mean ± SEM or range
# Protocol: Calibrated glass bead thermistors (Fenwall; 1.2-mm outside diameter, 50 omega/°C.) were implanted through burr holes in frontal bone: the thermistor leads were buried in a mound of dental cement that also insulated the screw electrodes and supported a 9-pin miniature electrical connector. In some experiments, the rectal temperatures were measured at intervals by using a calibrated thermistor probe; temperatures estimated from the implanted brain thermistors were generally within 0.3° C. of simultaneously recorded rectal temperature.
# New Zealand rabbits (male, 3-5 kg) or domestic cats were adapted to the infusion cages in a temperature-controlled room (21°-2° C.) on a 12:12 light/dark cycle. Intraventricular infusions or systemic injections were carried out between 0800 and 1000 hr and were followed by 6 or more hr of recording without disturbing the animals.
# (§3) EEG, electro-oculogram, and bodily movements were recorded on Grass polygraphs. The amplitude of EEG slow waves was recorded as the rms-rectified output from a 0.5- to 4-Hz bandpass filter (Bunco Electronics, Sharon, (T); the rms component was integrated and the integral was printed on tape every 2 min, thus providing an objective measure of the product of amplitude and duration of EEG slow waves. Each record was also analyzed visually for duration of SWS in rabbits and for both SWS and REM sleep in cats. The infusion and recording systems and examples of analysis of records are described in 1, 12, 15.
# rabbits [2] = test: Antipyretic (acetaminophen, indomethacin, aspirin) with AcMur-ala-igln in rabbits, SWS and temperature; type: in vivo; settings: for hourly % SWS (mean ±SEM): FIG. 5; for suppression of the pyrogenic (febrile) effects of AcMur-ala-igln by the antipyretic: AcMur-ala-igln delivered intravenously in rabbits
# Protocol: (§1) Acetaminophen (Sigma) was dissolved in sterile pyrogen-free saline.
# For this reason, the less toxic acetaminophen was used to suppress the pyrogenic effects of AcMur-ala-igln.
# In FIG. 5, the symbols mean the following: , AAP alone; , AAP followed by 120 μg of AcMur-ala-igln intravanously at time zero. Each value is mean ±SEM of six assays in six rabbits. In A, the average of the individual increases (ΔT values) in rectal temperature induced by AcMur-ala-igln together with AAP is compared with that induced by AAP alone in each of six rabbits.
# rabbits [3] = test: Intraperitoneal injection / stomach tube administration in rabbits, sleep response; type: in vivo, rabbit; settings: two rabbits, intraperitoneal injection / stomach tube (5 mg/kg)
# Protocol: In two rabbits, sleep responses were recorded after intraperitoneal injection of AcMur-ala-igln by stomach tube (5 mg/kg).
# squirrel monkey = settings: cited abstract (reference 2); cited from earlier work
# rabbits [4] = test: Intravenous injection in rabbits, SWS and side effects
# Protocol: New Zealand rabbits (male, 3-5 kg) or domestic cats were adapted to the infusion cages in a temperature-controlled room (21°-2° C.) on a 12:12 light/dark cycle. Intraventricular infusions or systemic injections were carried out between 0800 and 1000 hr and were followed by 6 or more hr of recording without disturbing the animals. […] Indomethacin for intravenous injection was dissolved in a small amount of EtOH and diluted with 150 mM NaHCO3 to a concentration of 5 mg/ml. Acetaminophen (Sigma) was dissolved in sterile pyrogen-free saline.
# as §3
# Each value is mean ±SEM of 11 assays in eight rabbits.
# cats [5] = test: Intraventricular infusion in cats, SWS, REM sleep and brain temperature; type: in vivo, cat; settings: intraventricular 200-500 pmol, four cats
# Protocol: as §1
# Each of four cats was infused intraventricularly one or more times with AcMur-ala-igln or AcMur-ala-igln-lys (200-500 pmol). The responses were more complex than those in rabbits. […] Only after the febrile response had reached its peak did the cats start to sleep for abnormally long periods in deep stage II SWS alternating with periods of REM sleep. The SWS and temperature responses of one cat to 250 pmol of AcMur-ala-igln-lys delivered intraventricularly during 15 min prior to start of recording is shown in FIG. 3. […] A similar delay in the onset of excess SWS was noted by Garcia-Arraras (12) after infusion of natural sleep factor in cats.
# Excess SWS induced by AcMur-ala-igln-lys lasted for 3-8 hr after infusion. (A) - - - , Control=37.7 plus or minus 0.2° C. (B) - - - , Control=27 plus or minus 5%. Similar responses were observed following one or more infusions of AcMur-ala-igln or AcMur-ala-igln-lys in each of four cats.
# rabbits [6] = test: Brain/body temperature (pyrogenic response) after intraventricular infusion in rabbits; type: in vivo, rabbit; settings: for ΔTmax, maximum increase in temperature: intraventricular, brain temperature, single rabbits, listed as AcMur--Ala--iGln
# Protocol: as §1
# cats [7] = test: Toxic reactions to indomethacin alone in cats; type: in vivo, cat; settings: doses as low as 1 mg/kg
# Protocol: (§2) The time course of the pyrogenic response to AcMur-ala-igln was sometimes quite different from that of the somnogenic response and, in some animals, the natural muramyl peptide isolated from urine induced substantial excess SWS without significant alteration of temperature. […] In preliminary experiments, indomethacin was used as an antipyretic because Parant et al. (7) had shown that this drug (in doses of 40 mg/kg) was effective in blocking the pyrogenic response to intravanously administered AcMur-ala-igln. […] For this reason, the less toxic acetaminophen was used to suppress the pyrogenic effects of AcMur-ala-igln. The results for six rabbits injected intravanously with AcMur-ala-igln at 120 μg/kg 30 min after intravanous injection of acetaminophen at 10 mg/kg are summarized in FIG. 5. It is clear that, under these conditions a substantial somnogenic effect was obtained for 3 to 4 hr with only a weak associated febrile response. In some animals, there was no significant increase in temperature during the sleep response.
# rabbits [8] = test: Toxic reactions to indomethacin alone in rabbits; type: in vivo, rabbit; settings: doses as low as 1 mg/kg
# Protocol: as §2
# [9] = intraventricular, dose 1.0 nmol
# [10] = much smaller doses delivered intraventricularly
# [11] = intraventricular, dose 0.2 nmol
# [12] = intraventricular, dose 0.5 nmol
# [13] = intraventricular, dose 2.0 nmol
compound,measurement,setting,value
"CC(=O)N[C@@H]1[C@@H](O[C@H](C)C(=O)N[C@@H](C)C(=O)N[C@H](CCC(=O)O)C(N)=O)[C@H](O)[C@@H](CO)O[C@H]1O [MDP, 2-(2-acetamido-2-desoxy-3-O-D-glucopyranosyl)-D-propionyl-L-alanyl-D-isoglutamine]",number of episodes of SWS having durations of 1-8 min,"rabbits [1]; hr 2 to hr 6 after administration, eight rabbits, FIG. 2",no significant effect
same,number of episodes of SWS having durations greater than 8 min,"rabbits [1]; hr 2 to hr 6 after administration, eight rabbits, FIG. 2, P<0.0125",increased
same,"amount required to induce a comparable increase of SWS for 6 hr, relative to the natural product (factor S)",rabbits [1]; intraventricular,roughly 10 times
same,hourly percentage of SWS,"rabbits [1]; intraventricular 75-150 pmol, for 6 hr or more after the infusion, control about 40%",about 60%
same,persistence of the effects,rabbits [1]; intraventricular infusion,6 to 12 h
same,"% SWS, 6 hr post infusion, Expt","rabbits [1]; intraventricular, dose 0.01 nmol",39 ± 4%
same,"% SWS, 6 hr post infusion, Expt","rabbits [1]; intraventricular, dose 0.05 nmol",49 ± 3%
same,% SWS Expt.,"rabbits [1]; intraventricular, dose 75 pmol, single rabbits, listed as AcMur--Ala--iGln",55% and 43%
same,"% SWS, 6 hr post infusion, Expt","rabbits [1]; intraventricular, dose 0.1 nmol",62 ± 7%
same,% SWS Expt.,"rabbits [1]; intraventricular, dose 120 pmol, single rabbits, listed as AcMur--Ala--iGln",94% and 69%
same,"Amplitude of slow wave, Expt.","rabbits [1]; intraventricular, dose 120 pmol, rms-rectified voltage of 0.5 to 4 Hz band, single rabbits, listed as AcMur--Ala--iGln",56 μV and 42 μV
same,% SWS Expt.,"rabbits [1]; intraventricular, dose 125 pmol, single rabbits, listed as AcMur--Ala--iGln",38% and 60%
same,"% SWS, 6 hr post infusion, Expt",rabbits [1]; [9],76 ± 7%
same,"% SWS, 6 hr post infusion, Expt","rabbits [1]; intraventricular, dose 10.0 nmol",65 ± 6%
same,deleterious effects,rabbits [1]; [10],did not cause deleterious effects
same,duration of excess SWS,rabbits [1]; [10],6 to 10 h
same,hourly % SWS (mean ±SEM),"rabbits [2]; AAP 10 mg/kg i.v. followed 30 min later by AcMur-ala-igln 120 μg i.v., six rabbits",67±3%
same,time after which toxic reactions developed,rabbits [2]; AcMur-ala-igln 120 μg/kg i.v. after acetaminophen 10 mg/kg i.v.,about 4 hr
same,"average ΔT, rectal temperature","rabbits [2]; AcMur-ala-igln i.v. with AAP, six rabbits",less than 0.7 °C
same,increase of SWS for 6 hr,rabbits [3],ca. 50%
same,effect on non-REM and REM sleep,squirrel monkey,induces non-REM but not REM sleep
same,time of return of sleep response to near control values,rabbits [4]; intravenous 150-200 nmol/kg,≤ 5 h
same,time of maximum sleep response after injection,"rabbits [4]; intravenous 150-200 nmol/kg (75-100 μg), FIG. 4",about 3 hr
same,side effects noted in some animals,"rabbits [4]; intravenous 150-200 nmol/kg, after 3 to 4 hr","abnormal lacrimation, nasal secretion, and inflammation"
same,time after which deleterious side effects occurred,"rabbits [4]; intravenous, doses sufficient to induce excess SWS and pyrexia",about 3 hr
same,REM sleep during 2-4 hr after the infusion,cats [5],completely suppressed
same,SWS after the initial period of sleep suppression,cats [5],abnormally long period of deep SWS
same,average ΔT,rabbits [6]; AcMur-ala-igln alone (Table 1),1.9±0.2 °C
same,"ΔTmax, maximum increase in temperature",rabbits [6]; dose 75 pmol,2.8 °C and 1.6 °C
same,"ΔTmax, maximum increase in temperature",rabbits [6]; dose 125 pmol,1.1 °C and 1.5 °C
"CC(=O)N[C@H]1C(O)O[C@H](CO)[C@@H](O)[C@@H]1O[C@H](C)C(=O)O (some centres unmarked) [N-acetylmuramic acid, reference compound]",somnogenic effect,"rabbits [1]; summary of Table 2, intraventricular, rabbits",no effect
CC(=O)N[C@H]1C(O)O[C@H](CO)[C@@H](O)[C@@H]1O[C@H](C)C(=O)N(C)[C@@H](C)C(=O)N[C@H](CCC(=O)O)C(N)=O (stereo partly drawn) [NAc--Mur--(N--Me)--L-ala-D-igln],"% SWS, 6 hr post infusion, Expt",rabbits [1]; [11],32-47%
CC(=O)NC1C(O)OC(CO)C(O)C1OC(C)C(=O)NC(C)C(=O)NC(CCC(=O)O)C(N)=O [NAc--Mur--D-ala-D-igln],"% SWS, 6 hr post infusion, Expt",rabbits [1]; [12],35 ± 2%
same,"% SWS, 6 hr post infusion, Expt",rabbits [1]; [9],35 ± 2%
"CC(=O)N[C@H]1C(O)O[C@H](CO)[C@@H](O)[C@@H]1O[C@H](C)C(=O)N[C@@H](C)C(=O)N[C@H](CCC(N)=O)C(=O)O (stereo partly drawn) [NAc--Mur--L-ala-D-gln, NAc-Mur-L-ala-D-gln]","% SWS, 6 hr post infusion, Expt",rabbits [1]; [13],45 ± 1%
same,"% SWS, 6 hr post infusion, Expt","rabbits [1]; intraventricular, dose 20.0 nmol",58-66%
COC(=O)[C@@H](CCC(N)=O)NC(=O)[C@H](C)NC(=O)[C@@H](C)O[C@H]1[C@H](O)[C@@H](CO)OC(O)[C@@H]1NC(C)=O (stereo partly drawn) [NAc--Mur--L-ala-D-gln-alpha OMe],"% SWS, 6 hr post infusion, Expt",rabbits [1]; [12],31-45%
CCCCOC(=O)[C@@H](CCC(N)=O)NC(=O)[C@H](C)NC(=O)[C@@H](C)O[C@H]1[C@H](O)[C@@H](CO)OC(O)[C@@H]1NC(C)=O (stereo partly drawn) [NAc--Mur--L-ala-D-gln-n-Bu ester],"% SWS, 6 hr post infusion, Expt","rabbits [1]; intraventricular, dose 0.25 nmol",41-47%
CC(=O)N[C@H]1C(O)O[C@H](CO)[C@@H](O)[C@@H]1O[C@H](C)C(=O)N[C@@H](C)C(=O)N[C@H](CCC(N)=O)C(N)=O (stereo partly drawn) [NAc--Mur--L-ala-D-glu(NH2)--NH2],"% SWS, 6 hr post infusion, Expt",rabbits [1]; [13],43 ± 1%
"COC(=O)CC[C@@H](NC(=O)[C@H](C)NC(=O)C(C)O[C@H]1[C@H](O)[C@@H](CO)O[C@H](O)[C@@H]1NC(C)=O)C(=O)OC (stereo partly drawn) [NAc--Mur--L-ala-D-glu(OMe)--OMe, NAc-Mur-L-ala-D-glu(OMe)-OMe]","% SWS, 6 hr post infusion, Expt",rabbits [1]; [13],66 ± 4%
"CC(=O)N[C@H]1C(O)O[C@H](CO)[C@@H](O)[C@@H]1O[C@H](C)C(=O)N[C@@H](C)C(=O)N[C@H](CCC(=O)O)C(=O)O (stereo partly drawn) [NAc--Mur--L-ala-D-glu, NAc-Mur-L-ala-D-glu]","% SWS, 6 hr post infusion, Expt",rabbits [1]; [11],43 ± 3%
same,"% SWS, 6 hr post infusion, Expt",rabbits [1]; [13],51 ± 3%
"COC(=O)[C@@H](CCC(=O)O)NC(=O)[C@H](C)NC(=O)[C@@H](C)O[C@H]1[C@H](O)[C@@H](CO)OC(O)[C@@H]1NC(C)=O (stereo partly drawn) [NAc--Mur--L-ala-D-glu-alpha-OMe, NAc-Mur-L-ala-D-glu-alpha-OMe]","% SWS, 6 hr post infusion, Expt",rabbits [1]; [11],47-61%
same,"% SWS, 6 hr post infusion, Expt",rabbits [1]; [13],72 ± 4%
"COC(=O)CC[C@@H](NC(=O)[C@H](C)NC(=O)[C@@H](C)O[C@H]1[C@H](O)[C@@H](CO)OC(O)[C@@H]1NC(C)=O)C(N)=O (stereo partly drawn) [NAc--Mur--L-ala-D-igln-gamma-OMe, NAc-Mur-L-ala-D-igln-gamma-OMe]","% SWS, 6 hr post infusion, Expt",rabbits [1]; [13],56 ± 7%
CC(=O)N[C@H]1C(O)O[C@H](CO)[C@@H](O)[C@@H]1O[C@H](C)C(=O)N[C@@H](C)C(=O)N[C@@H](CCC(=O)O)C(N)=O (stereo partly drawn) [NAc--Mur--L-ala-L-igln],"% SWS, 6 hr post infusion, Expt",rabbits [1]; [11],38 ± 4%
CC(=O)N[C@H]1C(O)O[C@H](CO)[C@@H](O)[C@@H]1O[C@H](C)C(=O)N[C@@H](C)C(=O)N[C@H](CCC(=O)N[C@@H](CCC[C@@H](N)C(=O)O)C(=O)N[C@H](C)C(=O)N[C@H](C)C(=O)O)C(=O)O (stereo partly drawn) [NAc-Mur-L-ala-gamma-D-glu-m-DAP-D-ala-D-ala],"% SWS, 6 hr post infusion, Expt","rabbits [1]; intraventricular, dose 0.15 nmol",46 ± 3%
same,"% SWS, 6 hr post infusion, Expt",rabbits [1]; [11],65 ± 5%
"CC(=O)NC1C(OC2C(CO)OC(O)C(NC(C)=O)C2OC(C)C(=O)NC(C)C(=O)NC(CCC(=O)O)C(N)=O)OC(CO)C(O)C1O (centres unmarked) [Nac--glc-1,4-MDP, NAc-glucosaminyl-(1,4)-MDP]","% SWS, 6 hr post infusion, Expt",rabbits [1]; [11],60 ± 5%
CC(=O)Nc1ccc(O)cc1 [acetaminophen],effects on sleep or rectal temperature,rabbits [2]; AAP alone,no significant effects
same,hourly % SWS (mean ±SEM),"rabbits [2]; AAP alone, 10 mg/kg intravenous, six rabbits",41±3%
same,suppression of the pyrogenic (febrile) effects of AcMur-ala-igln by the antipyretic,rabbits [2],completely or partially suppressed
"CC(=O)Oc1ccccc1C(=O)O [aspirin, acetyl salicylic acid]",suppression of the pyrogenic (febrile) effects of AcMur-ala-igln by the antipyretic,rabbits [2],like suppression of the febrile response
COc1ccc2c(c1)c(CC(=O)O)c(C)n2C(=O)c1ccc(Cl)cc1 [indomethacin],blocking of the pyrogenic or somnogenic effects of intraventricularly administered AcMur-ala-igln,"rabbits [2]; indomethacin: 10 out of 10 trials in six rabbits, acetaminophen: two rabbits",did not block
same,"toxic reactions (diarrhea, lethargy, inhibition of normal sleep)",cats [7],toxic reactions
same,"toxic reactions (diarrhea, lethargy, inhibition of normal sleep)",rabbits [8],toxic reactions
